The record followed here is patent publication US6521635B1, “Inhibition of MXR transport by acridine derivatives” (priority 2000, dated 2003).

Read-outs that look alike come from different tables or passages of the source.

The target of one series is T1, MXR (S1-M1-80 cells) (Homo sapiens, UniProt Q9UNQ0, R482G).
T1 construct: express high levels of a mitoxantrone transporter (Miyake et al. (1999) Cancer Res.59: 8-13); endogenous in cells; host or cells: S1-M1-80 (mitoxantrone-selected subline of S1 colon carcinoma cells)
T1 sequence (Q9UNQ0 1-655 R482G): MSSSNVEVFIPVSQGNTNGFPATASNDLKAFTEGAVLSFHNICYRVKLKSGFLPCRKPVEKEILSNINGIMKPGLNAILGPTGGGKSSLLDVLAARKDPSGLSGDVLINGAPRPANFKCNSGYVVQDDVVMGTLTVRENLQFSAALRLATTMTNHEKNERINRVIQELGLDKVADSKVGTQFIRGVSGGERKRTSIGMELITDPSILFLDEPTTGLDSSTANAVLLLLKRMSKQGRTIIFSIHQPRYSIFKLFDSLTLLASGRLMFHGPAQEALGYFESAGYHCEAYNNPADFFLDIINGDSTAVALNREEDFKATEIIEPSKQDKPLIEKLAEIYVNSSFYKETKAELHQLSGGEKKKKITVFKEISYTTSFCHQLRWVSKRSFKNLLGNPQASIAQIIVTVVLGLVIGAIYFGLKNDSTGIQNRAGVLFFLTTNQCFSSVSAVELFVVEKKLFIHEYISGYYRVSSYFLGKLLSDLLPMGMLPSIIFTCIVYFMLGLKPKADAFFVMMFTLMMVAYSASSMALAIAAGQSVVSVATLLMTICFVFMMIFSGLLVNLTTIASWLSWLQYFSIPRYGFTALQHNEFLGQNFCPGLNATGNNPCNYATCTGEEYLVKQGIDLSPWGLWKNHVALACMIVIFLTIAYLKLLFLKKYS
Description: Rhodamine efflux assay (flow cytometry). The class given is cell-based. Here is the method: To provide confirmation, rhodamine efflux assays were performed. […] The results are depicted in FIG. 2.

In series [1] the test system is S1 parental cells (low endogenous level of Pgp). Nature of the series: Rhodamine efflux assay (flow cytometry). The class given is cell-based, human. Here is the method:
The rhodamine and calcein efflux assays were performed as previously described with minor modifications (Lee et al. (1994) Mol. Pharmacol. 46: 627-638; Versantvoort et al. (1995) Int. J. Cancer 63: 855-862.) Suspensions of logarithmic phase cells were obtained from tissue culture flasks by trypsinization and transferred into round-bottom 96-well plates. […] After the efflux period, the cells were washed with DPBS and placed on ice. A FACSort flow cytometer (Becton Dickinson, San Jose, Calif.) with a 488-nm argon laser was used to analyze the samples. Rhodamine 123 or calcein fluorescence was collected after a 530 nm bandpass filter. A minimum of 10,000 events was collected per sample and the samples were gated on forward scatter versus side scatter to exclude clumps and debris; dead cells were excluded based on propidium iodide staining.
To provide confirmation, rhodamine efflux assays were performed. […] After an accumulation and efflux period, rhodamine fluorescence was quantitated by flow cytometric analysis. The results are depicted in FIG. 2. […] PSC 833, a cyclosporin-D analog, was used as a positive control for Pgp antagonism.

In series [2] the test system is S1-M1-80 cells expressing MXR. Description: In vitro cytotoxicity assay (sulforhodamine B staining). It is filed as cell-based, human. As to conditions: for IC50: Homo sapiens, S1-M1-80, 96 h; for RR (relative resistance): S1-M1-80 cells relative to S1 parental; for DMF +0.5 μM GF120918: IC50 without / IC50 with 0.5 μM GF120918; for DMF +1.0 μM GF120918: IC50 without / IC50 with 1.0 μM GF120918. On the procedure: (§1) Reversal of resistance was determined in cytotoxicity assays using the sulforhodamine staining (Skehan et al. (1990) J. Natl. […] Briefly, cells were harvested and seeded at a density of 2000 cells/well for the colon cancer lines and 4000 cells/well for the breast cancer cell lines in flat-bottom 96-well plates. The cells were incubated for 24 h at 37° C. to allow attachment prior to addition of the drugs. […] Each concentration was tested in triplicate and the controls were done in replicates of eight. Results are representative of from three to six experiments. […] After incubation, the cells were fixed in TCA and stained with sulforhodamine B (SRB) solution (0.4% wt/vol in 1% acetic acid) (Sigma Chemical, St Louis, Mo.). Optical densities were read on a Bio-Rad plate reader (Hercules, Calif.) at an absorbance of 540 nm.

In series [3] the test system is S1-B1-20 Pgp-overexpressing cells. Described as above. The class given is cell-based, human. The note with it: for relative resistance / DMF +0.5 μM GF120918 / DMF +1.0 μM GF120918: S1-B1-20 cells; for IC50: Homo sapiens, S1B1-20, 96 h; for RR (relative resistance): S1-B1-20 cells relative to S1 parental; for DMF +0.5 μM GF120918: IC50 without / IC50 with 0.5 μM GF120918; for DMF +1.0 μM GF120918: IC50 without / IC50 with 1.0 μM GF120918. On the procedure:
as §1

The subject of the next series is S1 parental cells. Described as above. It is filed as cell-based, human. As to conditions: for IC50: Homo sapiens; for DMF +0.5 μM GF120918 / DMF +1.0 μM GF120918: S1 cells; for DMF +0.5 μM GF120918: IC50 without / IC50 with 0.5 μM GF120918; for DMF +1.0 μM GF120918: IC50 without / IC50 with 1.0 μM GF120918. On the procedure: as §1
A further series concerns MCF-7 parental cells. Described as above. The class given is cell-based, human. As to conditions: for IC50: Homo sapiens, MCF7, 96 h. On the procedure: as §1
Setting [4] is: S1-M1-80 cells, chemotherapy drug without GF120918, 96 h, read-out: IC50.
[5] abbreviates: read-out: IC50 +0.5 μM GF120918, S1-M1-80 cells, with 0.5 μM GF120918, 96 h.
The mark [6] stands for this setting: 96 h, read-out: IC50 +0.5 μM GF120918.
Where [7] appears, read: 96 h, read-out: IC50 +1.0 μM GF120918.
Setting [8] is: read-out: IC50 +0.5 μM GF120918.
Setting [9] is: read-out: IC50 +1.0 μM GF120918.

Regarding `C/C=C/C[C@@H](C)C(=O)[C@H]1C(=O)N[C@@H](C(C)C)C(=O)N(C)CC(=O)N(C)[C@@H](CC(C)C)C(=O)N[C@@H](C(C)C)C(=O)N(C)[C@@H](CC(C)C)C(=O)N[C@@H](C)C(=O)N[C@H](C)C(=O)N(C)[C@@H](CC(C)C)C(=O)N(C)[C@@H](CC(C)C)C(=O)N(C)[C@@H](C(C)C)C(=O)N1C` [PSC 833], the “antagonism of MXR” value at MXR (S1-M1-80 cells) is recorded as “not an effective antagonist for MXR”. Further, the “effect on rhodamine accumulation and efflux” value in series [1] is “small increase in rhodamine accumulation and a decrease in efflux”.

Take `CC(=O)O[C@H]1C(=O)[C@@]2(C)[C@H]([C@H](OC(=O)c3ccccc3)[C@]3(O)C[C@H](OC(=O)[C@H](O)[C@@H](NC(=O)c4ccccc4)c4ccccc4)C(C)=C1C3(C)C)[C@]1(OC(C)=O)CO[C@@H]1C[C@@H]2O` [paclitaxel]: the relative resistance in series [2] (S1-M1-80 cells) is given as 1.5 fold; in series [3] it was 200 fold.

Turning to `O=C1c2c(O)ccc(O)c2C(=O)c2c(NCCNCCO)ccc(NCCNCCO)c21` [Mitoxantrone], the IC50 in series [2] (setting [4]) was found to be 222000 ± 101000 nM; in series [2] (setting [5]), 1570 ± 950 nM; in series [2] (read-out: IC50 +1.0 μM GF120918, S1-M1-80 cells, with 1.0 μM GF120918, 96 h), 120 ± 110 nM; in the series on S1 parental cells (setting [6]), 5.3 ± 4.3 nM; in the series on S1 parental cells (setting [7]), 5.2 ± 4.4 nM; in the series on S1 parental cells (96 h, read-out: IC50), 6.2 ± 4.7 nM. In addition, the IC50 was determined as 5.7 ± 7.3 nM with MCF-7 parental cells (setting [8]); 5.6 ± 8.1 nM in the series on MCF-7 parental cells (setting [9]); 25 ± 19 nM in the series on MCF-7 parental cells (read-out: IC50); 15 ± 5.6 nM in series [3] (setting [8]); 13 ± 6.6 nM in series [3] (setting [9]); 410 ± 610 nM in series [3] (read-out: IC50). Further, the “RR (relative resistance)” value is given as 35806 in series [2] and 66 in series [3]. Moreover, the results for the “DMF +0.5 μM GF120918” value (in series [2] (S1-M1-80 cells); in the series with S1 parental cells; in series [3]) were 141, 1.2 and 27, respectively. Further, the “DMF +1.0 μM GF120918” value is listed as 1850 in series [2] (S1-M1-80 cells); 1.2 with S1 parental cells; 4.4 with MCF-7 parental cells (MCF-7 cells, IC50 without / IC50 with 1.0 μM GF120918); 31 in series [3]. In the series with MCF-7 parental cells (MCF-7 cells, IC50 without / IC50 with 0.5 μM GF120918), the “DMF (Dose Modifying Factor) +0.5 μM GF120918” value was determined as 4.4.

Consider `CC[C@@]1(O)C(=O)OCc2c1cc1n(c2=O)Cc2cc3c(CN(C)C)c(O)ccc3nc2-1` [topotecan], for which the IC50 in series [2] (setting [4]) was 12000 ± 5000 nM; in series [2] (setting [5]), 2000 nM; in the series on S1 parental cells (setting [6]), 34 nM; in the series on S1 parental cells (setting [7]) it was 25 ± 7 nM; in the series with S1 parental cells (96 h, read-out: IC50), 36 ± 8.5 nM; in the series with S1 parental cells (read-out: IC50), 36 nM. Further, the half-inhibitory concentration (IC50) came out at 40 nM in series [3] (setting [8]), 27 ± 5 nM in series [3] (setting [9]) and 160 ± 50 nM in series [3] (read-out: IC50). Further, the values for the relative resistance in series [2] (S1-M1-80 cells) and in series [3] were 334 fold and 4.4 fold, respectively. For the same compound, the “RR (relative resistance)” value in series [2] was determined as 334; in series [3], 4.4. Moreover, the “DMF +0.5 μM GF120918” value in series [2] (S1-M1-80 cells) is 6; in the series with S1 parental cells it was 1.0; in series [3], 4. Moreover, the results for the “DMF +1.0 μM GF120918” value (in series [2] (S1-M1-80 cells); in the series on S1 parental cells; in series [3]) were 23, 1.4 and 5.9, respectively.
